Measured values: patent US6645918B1, “N-([1,2,4]triazoloazinyl)thiophenesulfonamide compounds and their use as herbicides” (Dow AgroSciences LLC, priority 2000, dated 2003)

Experiments:
Format in all cases: in vivo
[1] = tested on: blackgrass (Alopecurus myosuroides); assay: Postemergence herbicidal activity, blackgrass; conditions: foliar spray, visual after 2 weeks, 0 no injury, 100 complete kill
Procedure: (§1) Seeds of the desired test plant species were planted in Grace-Sierra MetroMix® 306 planting mixture, which typically has a pH of 6.0 to 6.8 and an organic matter content of about 30 percent, in plastic pots with a surface area of 64 square centimeters. When required to ensure good germination and healthy plants, a fungicide treatment and/or other chemical or physical treatment was applied. The plants were grown for 7-21 days in a greenhouse with an approximately 15 hr photoperiod which was maintained at about 23-29° C. during the day and 22-28° C. during the night. Nutrients and water were added on a regular basis and supplemental lighting was provided with overhead metal halide 1000 Watt lamps as necessary. The plants were employed for testing when they reached the first or second true leaf stage. A weighed amount of each test compound, determined by the highest rate to be tested, was placed in a 20 mL glass vial and was dissolved in 4 mL of a 97:3 v/v (volume/volume) mixture of acetone and dimethyl sulfoxide to obtain concentrated stock solutions. […] The concentrated stock solutions obtained were diluted with an aqueous mixture containing acetone, water, iso-propyl alcohol, dimethyl sulfoxide, Atplus 411F crop oil concentrate, and Triton X-155 surfactant (methylenebisdiamyl phenoxy polyethoxy ethanol) in a 48.5:39:10:1.5:1.0:0.02 v/v ratio to obtain spray solutions of known concentration. The solutions containing the highest concentration to be tested were prepared by diluting 2 mL aliquots of the stock solution with 13 mL of the mixture and lower concentrations were prepared by dilution of appropriate smaller portions of the stock solution. Approximately 1.5 mL aliquots of each solution of known concentration were sprayed evenly onto each of the test plant pots using a DeVilbiss atomizer driven by compressed air pressure of 2 to 4 psi (140 to 280 kilopascals) to obtain thorough coverage of each plant. Control plants were sprayed in the same manner with the aqueous mixture. In this test an application rate of 1 ppm results in the application of approximately 1 g/ha. The treated plants and control plants were placed in a greenhouse as described above and watered by sub-irrigation to prevent wash-off of the test compounds. After 2 weeks the condition of the test plants as compared with that of the untreated plants was determined visually and scored on a scale of 0 to 100 percent where 0 corresponds to no injury and 100 corresponds to complete kill.

[2] = tested on: cocklebur (Xanthium strumarium); assay: Preemergence herbicidal activity, cocklebur; conditions: soil spray, visual after 3 weeks, 0 no injury, 100 complete kill or no germination
Procedure: (§2) The soil matrix was contained in plastic pots with a surface area of 161 square centimeters. When required to ensure good germination and healthy plants, a fungicide treatment and/or other chemical or physical treatment was applied. A weighed amount, determined by the highest rate to be tested, of each test compound was placed in a 20 mL glass vial and was dissolved in 8 mL of a 97:3 v/v (volume/volume) mixture of acetone and dimethyl sulfoxide to obtain concentrated stock solutions. […] The stock solutions obtained were diluted with a 99.9:0.1 mixture of water and Tween® 155 surfactant (ethoxylated sorbitan fatty acid ester) to obtain application solutions of known concentration. The solutions containing the highest concentration to be tested were prepared by diluting 4 mL aliquots of the stock solution with 8.5 mL of the mixture and lower concentrations were prepared by dilution of appropriate smaller portions of the stock solution. A 2.5 mL aliquot of each solution of known concentration was sprayed evenly onto the soil of each seeded pot using a Cornwall 5.0 mL glass syringe fitted with a TeeJet TN-3 hollow cone nozzle to obtain thorough coverage of the soil in each pot. Control pots were sprayed in the same manner with the aqueous mixture. A highest application rate of 4.48 kg/ha is achieved when 50 mg of test compound is employed. The treated pots and control pots were placed in a greenhouse with an approximately 15 hr photoperiod which was maintained at about 23-29° C. during the day and 22-28° C. during the night. Nutrients and water were added on a regular basis and supplemental lighting was provided with overhead metal halide 1000 Watt lamps as necessary. The water was added by top-irrigation. After 3 weeks the condition of the test plants that germinated and grew as compared with that of the untreated plants that germinated and grew was determined visually and scored on a scale of 0 to 100 percent where 0 corresponds to no injury and 100 corresponds to complete kill or no germination.

[3] = tested on: chickweed (Stellaria media); assay: Postemergence herbicidal activity, chickweed; conditions: foliar spray, visual after 2 weeks, 0 no injury, 100 complete kill
Procedure: as §1

[4] = tested on: crabgrass (Digitaria sanguinalis); assay: Preemergence herbicidal activity, crabgrass; conditions: soil spray, visual after 3 weeks, 0 no injury, 100 complete kill or no germination
Procedure: as §2

[5] = tested on: morningglory (Ipomoea hederacea); assay: Postemergence herbicidal activity, morningglory; conditions: foliar spray, visual after 2 weeks, 0 no injury, 100 complete kill
Procedure: as §1

[6] = tested on: Rox orange sorghum (Sorghum bicolor); assay: Postemergence herbicidal activity, Rox orange sorghum; conditions: foliar spray, visual after 2 weeks, 0 no injury, 100 complete kill
Procedure: as §1

[7] = tested on: barnyardgrass (Echinochloa crus-galli); assay: Preemergence herbicidal activity, barnyardgrass; conditions: soil spray, visual after 3 weeks, 0 no injury, 100 complete kill or no germination
Procedure: as §2

wild oats (Avena fatua) [8] = assay: Postemergence herbicidal activity, wild oats; conditions: foliar spray, visual after 2 weeks, 0 no injury, 100 complete kill
Procedure: as §1

[9] = tested on: lambsquarters (Chenopodium album); assay: Postemergence herbicidal activity, lambsquarters; conditions: foliar spray, visual after 2 weeks, 0 no injury, 100 complete kill
Procedure: as §1

viola (Viola tricolor) = assay: Postemergence herbicidal activity, viola; conditions: foliar spray, visual after 2 weeks, 0 no injury, 100 complete kill
Procedure: as §1

[10] = tested on: velvetleaf (Abutilion theophrasti); assay: Postemergence herbicidal activity, velvetleaf; conditions: foliar spray, visual after 2 weeks, 0 no injury, 100 complete kill
Procedure: as §1

[11] = tested on: blackgrass (Alopecurus myosuroides); assay: Preemergence herbicidal activity, blackgrass; conditions: soil spray, visual after 3 weeks, 0 no injury, 100 complete kill or no germination
Procedure: as §2

wild oats (Avena fatua) [12] = assay: Preemergence herbicidal activity, wild oats; conditions: soil spray, visual after 3 weeks, 0 no injury, 100 complete kill or no germination
Procedure: as §2

[13] = tested on: giant foxtail (Setaria faberi); assay: Postemergence herbicidal activity, giant foxtail; conditions: foliar spray, visual after 2 weeks, 0 no injury, 100 complete kill
Procedure: as §1

[14] = tested on: wild poinsettia (Euphorbia heterophylla); assay: Preemergence herbicidal activity, wild poinsettia; conditions: soil spray, visual after 3 weeks, 0 no injury, 100 complete kill or no germination
Procedure: as §2

[15] = tested on: giant foxtail (Setaria faberi); assay: Preemergence herbicidal activity, giant foxtail; conditions: soil spray, visual after 3 weeks, 0 no injury, 100 complete kill or no germination
Procedure: as §2

[16] = tested on: cocklebur (Xanthium strumarium); assay: Postemergence herbicidal activity, cocklebur; conditions: foliar spray, visual after 2 weeks, 0 no injury, 100 complete kill
Procedure: as §1

[17] = tested on: pigweed (Amaranthus retroflexus); assay: Preemergence herbicidal activity, pigweed; conditions: soil spray, visual after 3 weeks, 0 no injury, 100 complete kill or no germination
Procedure: as §2

[18] = tested on: morningglory (Ipomoea hederacea); assay: Preemergence herbicidal activity, morningglory; conditions: soil spray, visual after 3 weeks, 0 no injury, 100 complete kill or no germination
Procedure: as §2

[19] = tested on: lambsquarters (Chenopodium album); assay: Preemergence herbicidal activity, lambsquarters; conditions: soil spray, visual after 3 weeks, 0 no injury, 100 complete kill or no germination
Procedure: as §2

[20] = tested on: Rox orange sorghum (Sorghum bicolor); assay: Preemergence herbicidal activity, Rox orange sorghum; conditions: soil spray, visual after 3 weeks, 0 no injury, 100 complete kill or no germination
Procedure: as §2

[21] = tested on: velvetleaf (Abutilion theophrasti); assay: Preemergence herbicidal activity, velvetleaf; conditions: soil spray, visual after 3 weeks, 0 no injury, 100 complete kill or no germination
Procedure: as §2

[22] = tested on: pigweed (Amaranthus retroflexus); assay: Postemergence herbicidal activity, pigweed; conditions: 7.8 ppm, foliar spray, visual after 2 weeks; 0 no injury, 100 complete kill
Procedure: as §1

COc1sccc1S(=O)(=O)Nc1nc2c(OC)cnc(OC)n2n1 [Compound 8]
ALOMY postemergence injury score 0-100 ([1]; 7.8 ppm): 50%
XANST preemergence injury score 0-100 ([2]; 8.8 g/Ha): 80%
STEME postemergence injury score 0-100 ([3]; 7.8 ppm): 95%
DIGSA preemergence injury score 0-100 ([4]; 8.8 g/Ha): 50%
IPOHE postemergence injury score 0-100 ([5]; 7.8 ppm): 60%
SORBI postemergence injury score 0-100 ([6]; 7.8 ppm): 95%
ECHCG preemergence injury score 0-100 ([7]; 8.8 g/Ha): 25%
AVEFA postemergence injury score 0-100 (wild oats (Avena fatua) [8]; 7.8 ppm): 85%
CHEAL postemergence injury score 0-100 ([9]; 7.8 ppm): 70%
VIOTR postemergence injury score 0-100 (viola (Viola tricolor); 7.8 ppm): 75%
ABUTH postemergence injury score 0-100 ([10]; 7.8 ppm): 75%
ALOMY preemergence injury score 0-100 ([11]; 8.8 g/Ha): 85%
AVEFA preemergence injury score 0-100 (wild oats (Avena fatua) [12]; 8.8 g/Ha): 80%
SETFA postemergence injury score 0-100 ([13]; 7.8 ppm): 60%
EPHHL preemergence injury score 0-100 ([14]; 8.8 g/Ha): 85%
SETFA preemergence injury score 0-100 ([15]; 8.8 g/Ha): 60%
XANST postemergence injury score 0-100 ([16]; 7.8 ppm): 60%
AMARE preemergence injury score 0-100 ([17]; 8.8 g/Ha): 80%
IPOHE preemergence injury score 0-100 ([18]; 8.8 g/Ha): 75%
CHEAL preemergence injury score 0-100 ([19]; 8.8 g/Ha): 70%
SORBI preemergence injury score 0-100 ([20]; 8.8 g/Ha): 70%
ABUTH preemergence injury score 0-100 ([21]; 8.8 g/Ha): 70%

COc1sccc1S(=O)(=O)Nc1nc2c(C)cnc(OC)n2n1 [Compound 9]
ALOMY postemergence injury score 0-100 ([1]; 62 ppm): 60%
XANST preemergence injury score 0-100 ([2]; 70 g/Ha): 25%
STEME postemergence injury score 0-100 ([3]; 62 ppm): 95%
DIGSA preemergence injury score 0-100 ([4]; 70 g/Ha): 10%
IPOHE postemergence injury score 0-100 ([5]; 62 ppm): 70%
SORBI postemergence injury score 0-100 ([6]; 62 ppm): 70%
ECHCG preemergence injury score 0-100 ([7]; 70 g/Ha): 0%
AVEFA postemergence injury score 0-100 (wild oats (Avena fatua) [8]; 62 ppm): 10%
CHEAL postemergence injury score 0-100 ([9]; 62 ppm): 40%
VIOTR postemergence injury score 0-100 (viola (Viola tricolor); 62 ppm): 60%
ABUTH postemergence injury score 0-100 ([10]; 62 ppm): 70%
ALOMY preemergence injury score 0-100 ([11]; 70 g/Ha): 100%
AVEFA preemergence injury score 0-100 (wild oats (Avena fatua) [12]; 70 g/Ha): 30%
SETFA postemergence injury score 0-100 ([13]; 62 ppm): 20%
EPHHL preemergence injury score 0-100 ([14]; 70 g/Ha): 10%
SETFA preemergence injury score 0-100 ([15]; 70 g/Ha): 15%
XANST postemergence injury score 0-100 ([16]; 62 ppm): 60%
AMARE preemergence injury score 0-100 ([17]; 70 g/Ha): 40%
IPOHE preemergence injury score 0-100 ([18]; 70 g/Ha): 10%
SORBI preemergence injury score 0-100 ([20]; 70 g/Ha): 50%
ABUTH preemergence injury score 0-100 ([21]; 70 g/Ha): 30%

CCOc1cscc1S(=O)(=O)Nc1nc2c(OC)cnc(OC)n2n1 [Compound 13]
ALOMY postemergence injury score 0-100 ([1]; 7.8 ppm): 80%
XANST preemergence injury score 0-100 ([2]; 4.4 g/Ha): 80%
STEME postemergence injury score 0-100 ([3]; 7.8 ppm): 95%
DIGSA preemergence injury score 0-100 ([4]; 4.4 g/Ha): 100%
IPOHE postemergence injury score 0-100 ([5]; 7.8 ppm): 75%
SORBI postemergence injury score 0-100 ([6]; 7.8 ppm): 95%
ECHCG preemergence injury score 0-100 ([7]; 4.4 g/Ha): 100%
AVEFA postemergence injury score 0-100 (wild oats (Avena fatua) [8]; 7.8 ppm): 85%
CHEAL postemergence injury score 0-100 ([9]; 7.8 ppm): 90%
VIOTR postemergence injury score 0-100 (viola (Viola tricolor); 7.8 ppm): 75%
AMARE postemergence injury score 0-100 [22]: 100%
ABUTH postemergence injury score 0-100 ([10]; 7.8 ppm): 95%
ALOMY preemergence injury score 0-100 ([11]; 4.4 g/Ha): 100%
AVEFA preemergence injury score 0-100 (wild oats (Avena fatua) [12]; 4.4 g/Ha): 100%
SETFA postemergence injury score 0-100 ([13]; 7.8 ppm): 95%
EPHHL preemergence injury score 0-100 ([14]; 4.4 g/Ha): 100%
SETFA preemergence injury score 0-100 ([15]; 4.4 g/Ha): 100%
XANST postemergence injury score 0-100 ([16]; 7.8 ppm): 95%
AMARE preemergence injury score 0-100 ([17]; 4.4 g/Ha): 90%
IPOHE preemergence injury score 0-100 ([18]; 4.4 g/Ha): 90%
CHEAL preemergence injury score 0-100 ([19]; 4.4 g/Ha): 100%
SORBI preemergence injury score 0-100 ([20]; 4.4 g/Ha): 100%
ABUTH preemergence injury score 0-100 ([21]; 4.4 g/Ha): 80%
